Where two headings read alike, the source gives them in different places.
Key:
[1] = Relative water solubility of amine; conditions: amine base
[2] = Dissociation constant in water (pKa value) of amine; assay type: physicochemical
From the text: If more than one type of amine group is present in the molecule then the relevant pKa value is that of the most basic amine group.

[3] = amine base, in water, read-out: pKa

Compound	Rel. W. Sol [1]	pKa [2, 3]	pKa ([2]; water)
C=C(C)C(=O)OCCN(C)C [DMAEMA, dimethylaminoethylmethacrylate]	high	5.4	–
Nc1ccccc1 [aniline]	insoluble	–	–
NCCCCCCCCCCCCN [dodecylene diamine]	insoluble	–	11.8
CCN [ethylamine]	high	–	–
NCCN [ethylene diamine]	high	–	–
Cc1ccccc1N [o-toluidine]	insoluble	6	–
vinyl pyridine	–	–	5.4
